Source: patent US5010174A, “Novel calcitonin derivative and salt thereof” (Mitsubishi Petrochemical Co., Ltd., priority 1987, dated 1991)

How the values were obtained:
[1] = Biological activity (calcitonin activity, MRC U/mg), assayed by the method of Japanese Provisional Patent Publication No. 123500/1985; assay type: in vivo; settings: for biological activity: method of Japanese Provisional Patent Publication No. 123500/1985; for biological activity, in words, compared with Example 1: measured as in Example 1
Description: The crude (Oct^1, Cys(CA)^7)-CCT obtained was dissolved in a 1 M acetic acid (5 mg/ml) and purified by the reverse phase high performance liquid chromatography. Chemcopack ODS-H (trade name, .phi.: 10 mm×250 mm) column produced by Chemco Co. was used, with the eluents employed being water (100) - 10% TFA (1) for the eluent A and water (40)-acetonitrile (60) - 10% TFA (1) for the eluent B, and the elution was effected under the linear concentration gradient from the eluent A to the eluent B. Here, the numerals within bracckets represent volume ratios. The fraction corresponding to (Oct^1, Cys(CA)^7)-CCT was collected and lyophilized to obtain 2.8 mg of white powder. The biological activity of the white powder obtained was assayed according to the method as described in Japanese Provisional Patent Publication No. 123500/1985.

[2] = Stability test: heating in sodium citrate buffer, remaining peptide by reverse phase HPLC; settings: for Stability (ratio of eluted peak area A after heating to area B without heat treatment): 0.1 M sodium citrate buffer pH 6.0, 10 μg/ml, sealed tube, 80° C., 24 hours, reverse phase HPLC
Description: The (Oct^1, Cys(CA)^7)-CCT was dissolved in 0.1 M sodium citrate buffer (pH 6.0) to a concentration of 10 μg/ml. One ml of this solution was left to stand in a sealed tube at 80° C. for 24 hours. By analysis according to the reverse phase HPLC by use of the measurement conditions (1), the eluted peak area A of the remaining (Oct^1, Cys(CA)^7)-CCT was determined. Similarly, the eluted peak area B of the (Oct^1, Cys(CA)^7)-CCT in the sample solution not subjected to the heat treatment was determined, and the ratio of A to B (%) was defined as the index.

| Substance | biological activity [1] [MRC U/mg] | Stability (ratio of eluted peak area A after heating to area B without heat treatment) [2] [%] | biological activity, in words, compared with Example 1 [1] | stability, in words, compared with Example 1 ([2]; measured as in Example 1) |
| --- | --- | --- | --- | --- |
| (Oct^1, Cys(Acm)^7)-CCT | 5500 |  |  |  |
| (Oct^1, Cys(Acm)^7)-ECT | 5400 |  |  |  |
| (Oct^1, Ala^3, Cys(CA)^7)-CCT | 6100 | 90 |  |  |
| (Oct^1, Thr^3, Cys(CA)^7)-CCT | 7800 | 95 |  |  |
| (Oct^1, Cys(CA)^7)-CCT | 5400 | 95 | equal to that obtained in Example 1 |  |
| (Oct^1, Cys^7)-CCT |  |  | substantially equal to those of (Oct^1, Cys(CA)^7)-CCT of Example 1 | substantially equal to those of (Oct^1, Cys(CA)^7)-CCT of Example 1 |
| (Oct^1, Thr^3, Cys(Acm)^7)-CCT | 7800 | 82 |  |  |
